# Assays:
# persons with SCI [1] = experiment: Airway resistance by forced oscillation technique in thirteen SCI subjects (Example 3); type: in vivo, human; conditions: IV bolus 2 mg neostigmine
# Method: (§1) On separate days, subjects were given by IV bolus either (i) 2 mg neostigmine alone, (ii) a combination of 2 mg neostigmine and 0.4 mg glycopyrrolate, or (iii) normal saline. Subjects were blinded to the type of infusion being delivered. The effect of these infusions on bowel evacuation was assessed semi-quantitatively on a scale of 0 (no evacuation) to 4+ (complete evacuation) using video fluoroscopy after rectal instillation of a barium-oatmeal paste having a consistency similar to that of stool. Blood pressure, heart rate and other vital signs were monitored in each subject. In addition, airway resistances were determined in each subject using the forced oscillation technique (as described, for example, in Goldman, Pulm. Pharmacol. Ther., 14(5):341-350, 2001). Total airway resistance was determined using 5 Hz forced oscillations, and central airway resistance was determined using 20 Hz forced oscillations.
# [2] = tested on: patients with acute colonic pseudo-obstruction; conditions: Ponec et al. 1999; cited from earlier work
# persons with SCI [3] = experiment: Heart rate, blood pressure and side effects monitoring in thirteen SCI subjects (Example 3); type: in vivo, human; conditions: IV bolus 2 mg neostigmine, with or without 0.4 mg glycopyrrolate, 13 SCI subjects
# Method: (§2) Thirteen (13) persons with SCI (5 quadriplegics, 8 paraplegics) with a mean age of 46 years (range 25-69) and mean duration of injury of 16 years (range 1-31) were treated. None of the subjects had known heart disease and/or history of arrhythmias.
# as §1
# persons with SCI [4] = experiment: Bowel evacuation score by video fluoroscopy after rectal barium-oatmeal paste in thirteen SCI subjects (Example 3); type: in vivo, human; conditions: IV bolus 2 mg neostigmine, with or without 0.4 mg glycopyrrolate, 13 SCI subjects
# Method: as §2, §1
# This response received a 0 (zero) bowel evacuation score. FIGS. 1B-1E show progressively increasing bowel evacuation responses in different subjects. The responses in FIGS. 1B-1E correspond to bowel evacuation scores of 1+, 2+, 3+, and 4+, respectively.
compound,measurement,setting,value
CN(C)C(=O)Oc1cccc([N+](C)(C)C)c1 [neostigmine],"total airway resistance, increase over baseline",persons with SCI [1]; 5 Hz forced oscillations,approximately 25.5%
same,"central airway resistance, increase over baseline",persons with SCI [1]; 20 Hz forced oscillations,approximately 18.4%
same,passage of flatus or stool with reduction in abdominal distention,[2],most patients successfully passed flatus or stool
same,change in blood pressure after administration,persons with SCI [3],No change
same,"other side effects (muscle twitching, sweating, vague abdominal sensations, salivation)",persons with SCI [3],transient and minimal
same,mean lowest heart rate measured,persons with SCI [3]; p=0.02 between groups,about 49 BMP
same,subjects with prompt and complete evacuation,persons with SCI [4],57 % of subjects
same,"time of evacuation post infusion, mean",persons with SCI [4],11 min
same,mean bowel evacuation score,persons with SCI [4]; scale 0 (no evacuation) to 4+ (complete evacuation),about 2.29
